# How the values were obtained:
# Type in all cases: in vivo
# Pemphigus bursarius = test: Example 2: chrysanthemums, lettuce root aphid, foliar spray; conditions: on roots, spray on above-ground parts, rate : I-9 144, I-2 96
# Method: In three replications, in each case 10 109-day-old chrysanthemums of the cultivar “Camilla” in 2 l-vessels are treated against the lettuce root aphid Pemphigus bursarius. Here, the active compounds Example (I-9) (240 SC) and Example (I-2) (240 SC) are applied with a knapsack sprayer operated by pressurized air at the stated application rates only to the above-ground parts of the plants. The soil is covered with a film. The application rate is 300 l of water/ha. 0.1% a.i. of rapeseed oil methyl ester (500 EW) is added to the spray liquor.
# The kill in percent is determined on the roots. 21 and 29 days after the application, the following results are obtained: […]
# Paratrioza cockerelli = test: Example 9: tomatoes treated against Paratrioza cockerelli; conditions: nymphs on leaves, g a.i./ha: Levarage 81, I-4 48
# Method: In three replications, plots of a size of 10 m^2 with tomatoes are treated against Paratrioza cockerelli. Application is carried out using a knapsack sprayer operated with pressurized air. Here, the active compound Example (I-4) (240 SC) in a tank mix with 0.2% a.i. of rapeseed oil methyl ester (500 EW) and the commercial standard Leverage (324 SE) are tested at the stated application rates. There are two applications at an interval of 7 days. The application rate is 345 l of water/ha.
# Evaluation is carried out 7, 14 and 21 days after the first treatment by rating the kill of the animals (nymphs) on the leaves.
# Aspidiotus neri = test: Example 20: lime trees treated against Aspidiotus neri; conditions: 167 d after treatment, on fruits, % a.i.: Dursban 0.096, Juvinal 0.005, I-4 0.0072
# Method: In four replications, about 5-year-old lime trees of the cultivar “Fino” are treated against Aspidiotus neri. The application is carried out using a knapsack sprayer. Here, the active compound Example (I-4) (240 SC) in a tank mix with 0.1% a.i. of rapeseed oil methyl ester (500 EW) at the stated application rate is tested against the standards Dursban (480 EC) and Juvinal (100 EC) at the stated amounts, applied once. The application rate is 3000 l of water/ha per tree.
# Evaluation is carried out 167 days after the treatment by rating the kill on the fruits.
# [1] = system: Quadraspidiotus perniciosus; test: Example 21: almond tree treated against Quadraspidiotus perniciosus; conditions: on branches, per metre crown height: Dursban 2240 g/ha, I-4 110 g/ha
# Method: In four replications, an about 20-year-old almond tree of the cultivar “Non-Pareil” is treated against Quadraspidiotus perniciosus. The application is carried out using a high-pressure sprayer. Here, the active compound Example (I-4) (240 SC) in a tank mix with 0.125% a.i. of methylated seed oil (1000 EC) and the commercial standard Lorsban (480 EC) are tested at the stated application rates. The amount of spray liquor is 935 l/ha.
# Evaluation is carried out 21, 42 and 63 days after the treatment by rating the kill of the animals on the branches.
# Dysmicoceus brevipes = test: Example 30a: guyabano tree treated against Dysmicoceus brevipes; conditions: on fruits, g a.i./m crown height: Lorsban 180, I-4 48
# Method: In three replications, in each case one guyabano tree is treated against Dysmicoceus brevipes. Here, the active compound Example (I-4) (240 SC), in a tank mix with 0.1% of rapeseed oil methyl ester (500 EW), is, at the stated application rate, tested against the commercial standard Lorsban (500 EC), at the stated application rate. The application is carried out using a motor-operated knapsack sprayer. Here, each plant is treated with spray liquor.
# Evaluation is carried out 3, 7 and 14 days after the treatment by rating the kill in percent on the fruits.
# Nasonovia ribisnigri = test: Example 42: head lettuce treated against Nasonovia ribisnigri; conditions: on plants, g a.i./ha: Pirimor 150, I-4 48, I-8 42
# Method: In four replications, plots of a size of 5 m^2 with head lettuce are, two weeks after transplantation, treated against Nasonovia ribisnigri. The application is carried out using a knapsack sprayer operated with pressurized air. Here, the active compounds Example (I-4) (240 SC) and Example (I-8) (240 SC) are, in a tank mix with 0.2% a.i. of rapeseed oil methyl ester (500 EW), tested against the commercial standard Pirimor, at the stated application rates. The application rate is 500 l of water/ha.
# Evaluation is carried out 7, 14 and 26 days after the treatment by rating the kill of the animals on the plants.
# Myzus persicae [2] = test: Example 49: potatoes treated against Myzus persicae; conditions: live nymphs on leaves, Henderson and Tilten, g a.i./ha: Tamaron 585, I-4 48
# Method: In four replications, plots of a size of about 7.5 m^2 with potatoes of the cultivar “BP 1” are treated against Myzus persicae. The application is carried out using a knapsack sprayer operated with pressurized air. Here, the active compound Example (I-4) (240 SC), in a tank mix with 0.2% a.i. of rapeseed oil methyl ester (500 EW), and the commercial standard Tamaron (585 SL) are tested at the stated application rates. Two applications are carried out, at an interval of 7 days. The application rate is 500 l of water/ha.
# Evaluation is carried out 7 and 13 days after the first treatment by counting the live animals (nymphs) on the leaves. The efficacy is then calculated by calculating the effect on the population in percent according to Henderson and Tilten.
# Myzus persicae [3] = test: Example 53: plum trees treated against Myzus persicae; conditions: population on shoots, g a.i./ha/m crown height: Actara 33.5, I-4 48
# Method: In four replications, plum trees of the cultivar “Angeleno” of a height of about 2.8 m are treated against Myzus persicae. The application is carried out using a high-pressure sprayer. Here, the active compound Example (I-4) (100 OD), in the stated amount, is tested against the commercial standard Actara (25 WG), at the stated application rate. The application rate is 500 l of water/ha/crown height in m.
# Evaluation is carried out 6, 9, 12, 20 days after the treatment by rating the kill of the population on the shoots.
# [4] = 7 d after first of two treatments
smiles,measurement,setting,value
CCOC(=O)OC1=C(c2cc(C)ccc2Br)C(=O)NC12CCC(OC)CC2 (stereo not shown) [Example (I-2)],Kill (%) 21 d,Pemphigus bursarius; 21 d after application,80.8%
same,Kill (%) 29 d,Pemphigus bursarius; 29 d after application,91.8%
CCOC(=O)OC1=C(c2cc(C)ccc2C)C(=O)NC12CCC(OC)CC2 (stereo not shown) [Example (I-4)],Kill (%) 7 d,Paratrioza cockerelli; [4],71.3%
same,Kill (%) 14 d,Paratrioza cockerelli; 14 d after first of two treatments,90.3%
same,Kill (%) 21 d,Paratrioza cockerelli; 21 d after first of two treatments,95.5%
same,Kill (%) 167 d,Aspidiotus neri,96.2%
same,Kill (%) 21 d,[1]; 21 d after treatment,84.9%
same,Kill (%) 42 d,[1]; 42 d after treatment,90%
same,Kill (%) 63 d,[1]; 63 d after treatment,94.6%
same,Kill (%) 3 days,Dysmicoceus brevipes; 3 days after treatment,89.8%
same,Kill (%) 7 days,Dysmicoceus brevipes; 7 days after treatment,100%
same,Kill (%) 14 days,Dysmicoceus brevipes; 14 days after treatment,100%
same,Kill (%) 7 d,Nasonovia ribisnigri; 7 d after treatment,92.3%
same,Kill (%) 14 d,Nasonovia ribisnigri; 14 d after treatment,95.7%
same,Kill (%) 26 d,Nasonovia ribisnigri; 26 d after treatment,95.1%
same,Effect (%) 7 d,Myzus persicae [2]; [4],67%
same,Effect (%) 13 d,Myzus persicae [2]; 13 d after first of two treatments,100%
same,Kill (%) 6 d,Myzus persicae [3]; 6 d after treatment,96.4%
same,Kill (%) 9 d,Myzus persicae [3]; 9 d after treatment,99.7%
same,Kill (%) 12 d,Myzus persicae [3]; 12 d after treatment,99.8%
same,Kill (%) 20 d,Myzus persicae [3]; 20 d after treatment,99.9%
same,Kill (%) 27 d,Myzus persicae [3]; 27 d after treatment,99.9%
